According to patent EP4467535A1, “LACTAM PESTICIDAL COMPOUNDS” (priority 2023, dated 2024):

Legend:
Type in all cases: in vivo
[1] = system: Yellow fever mosquito (Aedes aegypti); experiment: whole plant or invertebrate; conditions: 48 h, larval mortality visually assessed after 2 days at 28 ± 1°C, read-out: mortality in comparison with untreated controls
Protocol: Example B1: Action on Yellow fever mosquito (Aedes aegypti)
For evaluating control of yellow fever mosquito (Aedes aegypti) the test unit consisted of 96-well-microtiter plates containing 200µL of tap water per well and 5-15 freshly hatched A. aegypti larvae.
The active compounds or mixtures were formulated using a solution containing 75% (v/v) water and 25% (v/v) DMSO. Different concentrations of formulated compounds or mixtures were sprayed onto the insect diet at 2.5µL, using a custom-built micro atomizer, at two replications.
For experimental mixtures in these tests identical volumes of both mixing partners at the desired concentrations respectively, were mixed together.
After application, microtiter plates were incubated at 28 ± 1°C, 80 ± 5 % relative humidity for 2 days. Larval mortality was then visually assessed.

[2] = system: Orchid thrips (Dichromothrips corbetti); experiment: Action on Orchid thrips (Dichromothrips corbetti), floral-immersion technique; conditions: adult thrips on dipped orchid petals, 72 hours after treatment, read-out: mortality in comparison with untreated controls
Protocol: Example B2: Action on Orchid thrips (Dichromothrips corbetti)
Dichromothrips corbetti adults used for bioassay were obtained from a colony maintained continuously under laboratory conditions. For testing purposes, the test compound is diluted in a 1:1 mixture of acetone:water (vol:vol), plus Kinetic® HV at a rate of 0.01% v/v.
Thrips potency of each compound was evaluated by using a floral-immersion technique. All petals of individual, intact orchid flowers were dipped into treatment solution and allowed to dryin Petri dishes. Treated petals were placed into individual re-sealable plastic along with about 20 adult thrips. All test arenas were held under continuous light and a temperature of about 28°C for duration of the assay. After 3 days, the numbers of live thrips were counted on each petal. The percent mortality was recorded 72 hours after treatment.

[3] = system: Boll weevil (Anthonomus grandis); experiment: Action on Boll weevil (Anthonomus grandis), 96-well microtiter plate insect diet test; conditions: 120 h, egg and larval mortality visually assessed after 5 days, read-out: mortality in comparison with untreated controls
Protocol: Example B3: Action on Boll weevil (Anthonomus grandis )
For evaluating control of boll weevil (Anthonomus grandis) the test unit consisted of 96-well-microtiter plates containing an insect diet and 5-10 A. grandis eggs.
The compounds were formulated using a solution containing 75% (v/v) water and 25% (v/v) DMSO. Different concentrations of formulated compounds were sprayed onto the insect diet at 5 µL, using a custom-built micro atomizer, at two replications.
After application, microtiter plates were incubated at about 25 + 1°C and about 75 + 5 % relative humidity for 5 days. Egg and larval mortality were then visually assessed.

[4] = system: Silverleaf whitefly (Bemisia argentifolii) (adults); experiment: Action on Silverleaf whitefly (Bemisia argentifolii) adults, sprayed cotton plants; conditions: 72 h, read-out: mortality in comparison with untreated controls
Protocol: Example B4: Action on Silverleaf whitefly (Bemisia argentifolii) (adults)
(§1) The active compounds were formulated by a Tecan liquid handler in 100% cyclohexanone as a 10,000 ppm solution supplied in tubes. The 10,000 ppm solution was serially diluted in 100% cyclohexanone to make interim solutions. These served as stock solutions for which final dilutions were made by the Tecan in 50% acetone:50% water (v/v) into 5 or 10ml glass vials. A nonionic surfactant (Kinetic®) was included in the solution at a volume of 0.01% (v/v). The vials were then inserted into an automated electrostatic sprayer equipped with an atomizing nozzle for application to plants/insects.
Cotton plants at the cotyledon stage (one plant per pot) were sprayed by an automated electrostatic plant sprayer equipped with an atomizing spray nozzle. The plants were dried in the sprayer fume hood and then removed from the sprayer. Each pot was placed into a plastic cup and about 10 to 12 whitefly adults (approximately 3-5 days old) were introduced. The insects were collected using an aspirator and a nontoxic Tygon® tubing connected to a barrier pipette tip. The tip, containing the collected insects, was then gently inserted into the soil containing the treated plant, allowing insects to crawl out of the tip to reach the foliage for feeding. […] Mortality was assessed 3 days after treatment, compared to untreated control plants.

[5] = system: Tobacco budworm (Heliothis virescens); experiment: Action on Tobacco budworm (Heliothis virescens), 96-well microtiter plate insect diet test; conditions: 120 h, egg and larval mortality visually assessed after 5 days, read-out: mortality in comparison with untreated controls
Protocol: Example B5: Action on Tobacco budworm (Heliothis virescens)
For evaluating control of tobacco budworm (Heliothis virescens) the test unit consisted of 96-well-microtiter plates containing an insect diet and 15-25 H. virescens eggs.
The compounds were formulated using a solution containing 75% v/v water and 25% v/v DMSO. Different concentrations of formulated compounds were sprayed onto the insect diet at 10 µl, using a custom-built micro atomizer, at two replications.
After application, microtiter plates were incubated at about 28 + 1°C and about 80 + 5 % relative humidity for 5 days. Egg and larval mortality were then visually assessed.

[6] = system: Diamond back moth (Plutella xylostella); experiment: Action on Diamond back moth (Plutella xylostella), cabbage leaf dip test; conditions: foliar, third instar larvae on dipped cabbage leaves, 72 hours after treatment, read-out: mortality in comparison with untreated controls
Protocol: Example B6: Action on Diamond back moth (Plutella xylostella)
The active compound is dissolved at the desired concentration in a mixture of 1:1 (v/v) distilled water: acetone. Surfactant (Kinetic® HV) is added at a rate of 0.01% (v/v). The test solution is prepared at the day of use.
Leaves of cabbage were dipped in test solution and air-dried. Treated leaves were placed in petri dishes lined with moist filter paper and inoculated with ten third instar larvae. Mortality was recorded 72 hours after treatment. Feeding damages were also recorded using a scale of 0-100%.

[7] = system: Southern armyworm (Spodoptera eridania), second instar larvae; experiment: Action on Southern armyworm (Spodoptera eridania), sprayed lima bean plants; conditions: 96 h, 4 days after treatment, read-out: mortality in comparison with untreated controls
Protocol: Example B7: Action on Southern armyworm (Spodoptera eridania), second instar larvae
as §1, with “into 10” for “into 5”, “or 20 mL” for “or 10ml”
Lima bean plants (variety Sieva) were grown 2 plants to a pot and selected for treatment at the 1st true leaf stage. Test solutions were sprayed onto the foliage by an automated electrostatic plant sprayer equipped with an atomizing spray nozzle. The plants were dried in the sprayer fume hood and then removed from the sprayer. Each pot was placed into perforated plastic bags with a zip closure. About 10 to 11 armyworm larvae were placed into the bag and the bags zipped closed. Test plants were maintained in a growth room at about 25°C and about 20-40% relative humidity for 4 days, avoiding direct exposure to fluorescent light (24 hour photoperiod) to prevent trapping of heat inside the bags. Mortality and reduced feeding were assessed 4 days after treatment, compared to untreated control plants.

Q: Which mortality at 800 ppm [1] does the source give for `Cc1ccc(C(C)C)c(N2C(=O)CS/C2=N\N=C\c2ccc(-c3nn(C)c(N4Cc5cc(OC(F)(F)F)ccc5C4=O)c3C)cc2)c1` [C-2, (2Z)-2-[(E)-[4-[1,4-dimethyl-5-[1-oxo-5-(trifluoromethoxy)isoindolin-2-yl]pyrazol-3-yl]phenyl]methylenehydrazono]-3-(2-isopropyl-5-methyl-phenyl)thiazolidin-4-one] here?
A: The mortality at 800 ppm was no less than 50%.

Q: And the mortality at 300 ppm [2]?
A: The mortality at 300 ppm was no less than 75%.

Q: What about the mortality at 800 ppm [3] of the same compound?
A: Its mortality at 800 ppm is no less than 75%.

Q: What about the mortality at 300 ppm [4] of the same compound?
A: Its mortality at 300 ppm is no less than 75%.

Q: What about the mortality at 800 ppm [5] of the same compound?
A: Its mortality at 800 ppm is no less than 75%.

Q: And the mortality at 300 ppm [6]?
A: Its mortality at 300 ppm is no less than 75%.

Q: And the mortality at 300 ppm [7]?
A: Its mortality at 300 ppm is no less than 75%.
